Read-outs that look alike come from different tables or passages of the source. Ends that are not written are not given here.

Data set [1] relates to paclitaxel-resistant LnCap cells. Description: MTT assay of paclitaxel-resistant LnCap cells (reversal of paclitaxel resistance). The class given is cell-based. Particulars: paclitaxel alone, even at 600 μM (data not shown). As to the method:
The 9R peptide (SEQ ID NO: 200; labeled “9” in FIG. 16) was tested for its ability to reverse paclitaxel (TAXOL™) resistance in paclitaxel-resistant LnCap cells.
Paclitaxel-resistant LnCaP cells were treated with the peptides for 120 hours, and incubated with MTT for 4 hours. The paclitaxel-resistant LnCap cells were resistant to paclitaxel even at 600 μM concentration (data not shown). Referring to FIG. 16, the paclitaxel-resistant LnCap cells were resistant to 9R at the 100 μM level (labeled **). However, the combination of paclitaxel (at little as 30 nM) and 9R (at little as 5 μM) killed the paclitaxel-resistant LnCap cells (labeled ***).
Background: Tetrazolium assays rely on reduction of a dye to a coloured formazan, in cell work by metabolically active cells.

In data set [2] the test system is LnCaP cells. The conditions noted are these: for IC50: 48 h. As to the method: LnCaP cells were treated with peptides 9R, 9S1, 120 (SEQ ID NO: 120) and a vehicle control. LnCaP cells were treated with the peptides for 48 hours, and incubated with MTT for 4 hours. For background level of absorbance, media alone was measured on the plate. […] Several concentrations of peptides were used to determine the IC50 of these peptides.
These cells were treated with an identical concentration (30 μM) of peptoprime peptide 120.

In another data set the test system is mice. Particulars: cited from earlier work.
Data set [3] deals with LnCaP cells. The class given is cell-based. The conditions noted are these: 24 h. An excerpt:
The HCS MITOCHONDRIAL HEALTH KIT™ (available from Invitrogen) includes a dye that is taken up by healthy, actively respiring mitochondria. The uptake of this dye can be visualized with fluorescent confocal microscopy. FIGS. 9A-9C show control LnCaP cells treated only with the vehicle control (i.e., no peptide). The Hoechst dye stained nuclei of cells, whether they were alive or dead (Excitation/Emission maxima—Hoechst 33342: 350/461 nm). FIG. 9A is a panel showing all nuclei stained with Hoechst dye. FIG. 9B is a panel showing healthy mitochondria stained with MitoHealth dye. FIG. 9C is a panel showing the merged images of 9A and 9B. The mitochondrial health dye incorporated into the cells depends on mitochondrial membrane potential (excitation/emission maxima—MitoHealth stain: 550/580 nm). The HCS MITOCHONDRIAL HEALTH KIT™ (Invitrogen) was developed for simultaneous quantitative measurements of two cell health parameters in the same cell: mitotoxicity and cytotoxicity. The MitoHealth stain accumulated in mitochondria in live cells proportional to the mitochondrial membrane potential.
A range of peptide concentrations was applied to the LnCap cells. […] The cells were treated for 24 hrs.
A range of peptide concentrations was used to treat LnCap cells. […] The cells were incubated with peptide for 24 hrs.

For data set [4], the system named is Normal (non-cancer) human lung fibroblast cells (WI-38). The data set can be described thus: MTT assay of WI-38 cells. Type of data set: cell-based. Particulars: WI-38 normal fibroblasts, treated 1 hour, MTT 4 hours. As to the method: Normal (non-cancer) human lung fibroblast cells (WI-38) were also treated with the 9R, 9S1, and 120 peptides. WI-38 cells were treated with the peptides for 1 hour and followed by MTT for 4 hours. Although the treated cells show no decrease in MTT absorbance, this may have been due to the cells being plated at lower concentration, and may not have been actively dividing.

In the case of `CC(=O)O[C@H]1C(=O)[C@@]2(C)[C@H]([C@H](OC(=O)c3ccccc3)[C@]3(O)C[C@H](OC(=O)[C@H](O)[C@@H](NC(=O)c4ccccc4)c4ccccc4)C(C)=C1C3(C)C)[C@]1(OC(C)=O)CO[C@@H]1C[C@@H]2O` [paclitaxel], in data set [1], the “sensitivity of paclitaxel-resistant LnCap cells (MTT)” value is “resistant”.

Regarding `OO` [peroxide, Hydrogen peroxide, reference compound], the “MTT absorbance value compared with control treatment cells” value in the data set on LnCaP cells [2] (LnCaP, treated 48 hours, MTT 4 hours) was “marked decrease”.

Take AQGV: the “recuperation after lethal exposure to radiation” value in the data set on mice is listed as “shown promise in accelerating the recuperation”.

What is called IC50 is the midpoint of a concentration-inhibition curve. Higher therefore signals weaker potency in that assay. RRRRRNWMWC [Peptide 9R, RRRRRNWMWC]: the figures for the IC50 in the data set on LnCaP cells [2] and in the data set on LnCaP cells [3] were around 50 µM and 100 µM, respectively. The MTT absorbance result in data set [4] is listed as “no decrease”.

For the molecule WCMNW [Peptide 9S1, WCMNW], the IC50 in the data set on LnCaP cells [2] was around 30 µM; in the data set with LnCaP cells [3], 30 µM. The MTT absorbance entry in data set [4] is “no decrease”.

On to WFMHW [Peptide 120, WFMHW], for which the MTT absorbance result in data set [4] is recorded as “no effect”.

The values are drawn from patent US20140249293A1, “Absent and Rare Peptides and Therapeutic Uses Thereof” (Boise State University, priority 2012, published 2014).
